The results in this text go back to PubChem BioAssay (NCI).

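Five concentrations, 48 hours, 96-well plates. GI50 marks 50% less growth. The concentration for full growth arrest is given as TGI.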 A value given as a limit tells only on which side of the number the result lay.

Among the test systems are SW-620 colon; SNB-75 CNS; 786-0 renal; SF-295 CNS; HOP-92 NSCLC; SK-OV-3 ovarian; NCI-H522 lung; MCF7 breast; SN12C renal; HL-60(TB) leukemia.
What all share (experiment): DTP human tumour cell line panel, 48 h

Regarding `CN1CCC(n2[nH]c(-c3ccccc3)c(Cc3ccccc3)c2=O)CC1`, the TGI in the assay with SW-620 colon, in the assay on SNB-75 CNS, in the assay on 786-0 renal, in the assay on SF-295 CNS, with HOP-92 NSCLC and in the assay with SK-OV-3 ovarian was greater than 100 µM each time. In addition, the TGI in the assay with NCI-H522 lung, in the assay on MCF7 breast and with SN12C renal was greater than 100 µM throughout.
Regarding `CC1CC2(CCC1OCc1ccccc1)OCCO2` (stereo not drawn), the TGI in the assay on SW-620 colon, in the assay with 786-0 renal, in the assay on SF-295 CNS, in the assay on HOP-92 NSCLC, in the assay with HL-60(TB) leukemia and in the assay with SK-OV-3 ovarian was greater than 100 µM in each case. The TGI in the assay on NCI-H522 lung and with SN12C renal was greater than 100 µM in each case.
Turning to `CCC[CH2][Sn]1([CH2]CCC)[O]C(=O)CN=Cc2ccccc2[O]1`, the GI50 (commonly the concentration at which growth is held to half of that of the control) with SW-620 colon was 0.175 µM; with SNB-75 CNS, 0.282 µM; in the assay with 786-0 renal, 0.517 µM; in the assay on SF-295 CNS, 1.14 µM; in the assay with HOP-92 NSCLC, 0.182 µM; in the assay with SK-OV-3 ovarian, 0.922 µM. Further, the GI50 in the assay with NCI-H522 lung is 0.0349 µM; with SN12C renal, 0.292 µM. In addition, the TGI – broadly, the concentration at which net growth stops – in the assay with SW-620 colon worked out at 0.434 µM; in the assay with SNB-75 CNS, 0.849 µM; in the assay on 786-0 renal, 1.73 µM; with SF-295 CNS, 2.37 µM; in the assay on HOP-92 NSCLC, 0.519 µM; with SK-OV-3 ovarian, 2.18 µM. The figures for the total growth inhibition concentration (TGI) in the assay with NCI-H522 lung and with SN12C renal were 0.173 µM and 1.13 µM, respectively.
In the case of `O=CN1CCN(C=S)CC1`, the TGI in the assay with SW-620 colon, with SNB-75 CNS, in the assay with 786-0 renal, in the assay with SF-295 CNS, with HOP-92 NSCLC and in the assay with HL-60(TB) leukemia was greater than 100 µM each time. Further, the TGI in the assay with SK-OV-3 ovarian, in the assay on NCI-H522 lung and in the assay on SN12C renal was greater than 100 µM throughout.
On to `NC(=O)c1c2c(cc3c(=O)c4ccccc4[nH]c13)CCCC2`, for which the TGI in the assay on SW-620 colon is greater than 100 µM; in the assay on SNB-75 CNS it was greater than 75 µM; with 786-0 renal, greater than 100 µM; with SF-295 CNS, greater than 100 µM; with HOP-92 NSCLC, greater than 100 µM; with HL-60(TB) leukemia it was greater than 100 µM. Besides, the TGI in the assay with SK-OV-3 ovarian, with NCI-H522 lung and in the assay on SN12C renal was greater than 100 µM in each case.
As for `CC[C@@]1(O)C(=O)OCc2c1cc1n(c2=O)Cc2cc3c(NC(=O)CN)cccc3nc2-1`, the concentration for total growth inhibition (TGI) with SW-620 colon is greater than 100 µM; with SNB-75 CNS, 0.693 µM; in the assay on 786-0 renal it was 3 µM; in the assay on SF-295 CNS, 20.4 µM; in the assay on HOP-92 NSCLC it was greater than 100 µM; in the assay with SK-OV-3 ovarian it was 25.3 µM. Besides, the TGI was 56.3 µM in the assay with NCI-H522 lung, greater than 100 µM with MCF7 breast and 17.1 µM in the assay with SN12C renal.
With `COc1cc(OC)cc(-c2cncn2-c2ccc(-c3nc4cc(OC)cc(OC)c4s3)cc2)c1`, the GI50 with SNB-75 CNS was 3.28 µM; with 786-0 renal it was 7.6 µM; in the assay on SF-295 CNS, 2.4 µM; with SK-OV-3 ovarian, 4.69 µM; in the assay with NCI-H522 lung, 2.49 µM; with MCF7 breast, 3.82 µM. The GI50 with SN12C renal was greater than 100 µM. The TGI in the assay on SNB-75 CNS is 17.9 µM; in the assay on 786-0 renal it was greater than 100 µM; with SF-295 CNS it was 43.1 µM; in the assay on SK-OV-3 ovarian, greater than 100 µM; in the assay with NCI-H522 lung, greater than 100 µM; with MCF7 breast it was greater than 100 µM. The TGI in the assay with SN12C renal is greater than 100 µM.
On to `C=CCN(CC=C)CC(C(C)=O)C(c1ccccc1)c1c(O)c2ccccc2oc1=O` (stereo not drawn), for which the TGI is greater than 100 µM in the assay with SW-620 colon; greater than 100 µM with SNB-75 CNS; greater than 100 µM in the assay with 786-0 renal; 95.8 µM in the assay on SF-295 CNS; greater than 100 µM in the assay with HOP-92 NSCLC; greater than 100 µM with HL-60(TB) leukemia. For the same compound, the TGI in the assay with SK-OV-3 ovarian, in the assay on NCI-H522 lung and in the assay on SN12C renal was greater than 100 µM each time.
Take `COc1ccc(/C=C\c2cc(OC)c(OC)c(OC)c2)cc1OCC(=O)Nc1nc2ccc(OC(F)(F)F)cc2s1`: the GI50 is 5.65 µM in the assay on SW-620 colon; 1.56 µM in the assay with SNB-75 CNS; 54.3 µM in the assay with 786-0 renal; 3.7 µM with SF-295 CNS; 2.74 µM in the assay on HOP-92 NSCLC; 8.42 µM with SK-OV-3 ovarian. Also, the figures for the GI50 with NCI-H522 lung, with MCF7 breast and in the assay with SN12C renal were 3.16 µM, 2.89 µM and 6.42 µM, respectively. The TGI with SW-620 colon is greater than 100 µM; in the assay on SNB-75 CNS, 7.68 µM; in the assay with 786-0 renal, greater than 100 µM; with SF-295 CNS, greater than 100 µM; with HOP-92 NSCLC, 45.1 µM; with SK-OV-3 ovarian, greater than 100 µM. For the same compound, the TGI in the assay on NCI-H522 lung was 21.7 µM; with MCF7 breast, greater than 100 µM; in the assay on SN12C renal, greater than 100 µM.
In the case of `CC(=O)O[C@H]1CC[C@@]2(C)C(=CC[C@@H]3C2CC[C@]2(C)Nc4[nH]ncc4CC32)C1` (stereo partly drawn), the TGI in the assay with SW-620 colon is greater than 100 µM; in the assay with SNB-75 CNS, greater than 100 µM; with 786-0 renal, greater than 100 µM; with SF-295 CNS, greater than 100 µM; with HL-60(TB) leukemia it was 53.5 µM; with SK-OV-3 ovarian, greater than 100 µM.
With `O=C1C=CC(=O)c2c1ncc1c2nc2sccn21`, the GI50 was 14.7 µM in the assay with SW-620 colon; 15.5 µM in the assay with 786-0 renal; 48.3 µM in the assay with SF-295 CNS; 14.9 µM with HOP-92 NSCLC; 98.3 µM with SK-OV-3 ovarian; 16 µM in the assay on NCI-H522 lung. Also, the GI50 was 20.6 µM in the assay on MCF7 breast and 23.3 µM in the assay with SN12C renal. Further, the TGI is 77.7 µM with SW-620 colon; 36.3 µM with 786-0 renal; greater than 100 µM in the assay with SF-295 CNS; 31.1 µM with HOP-92 NSCLC; greater than 100 µM in the assay on SK-OV-3 ovarian; 61.2 µM in the assay on NCI-H522 lung. The TGI with MCF7 breast was greater than 100 µM; in the assay on SN12C renal, 48.3 µM.
With `COc1ccccc1NC(=O)CC(=O)NNCC(=O)Nc1nnc(-c2ccccc2)o1`, the concentration for total growth inhibition (TGI) in the assay on SW-620 colon, in the assay with SNB-75 CNS, in the assay with 786-0 renal, in the assay on SF-295 CNS, in the assay on SK-OV-3 ovarian and in the assay with NCI-H522 lung was greater than 100 µM in each case. In the assay with SN12C renal, this compound displayed a TGI greater than 100 µM.
In the case of `NC(N)=N/N=C/c1c(-c2ccc(Cl)c([N+](=O)[O-])c2)nc2ccccn12`, the GI50 with SW-620 colon was 1.46 µM; in the assay on 786-0 renal it was 0.512 µM; with SF-295 CNS, 1.82 µM; in the assay on SN12C renal it was 1.87 µM. For the same compound, the TGI in the assay with SW-620 colon came out at 3.16 µM; in the assay with 786-0 renal, 1.9 µM; with SF-295 CNS it was 3.42 µM; with SN12C renal, 3.66 µM.
